From patent publication US10752900B2, “Oligonucleotides for modulating gene expression and uses thereof” (BIOGENERA S.P.A., priority 2012, dated 2020)

Assays:
Assay type in all cases: cell-based, human
Conditions in all cases: Table 6
[1] = test system: WiT49; assay: Cellular proliferation assay (ATP-Lite), WiT49 cells
Protocol: For the purpose of assessing the gene modulation ability of the oligonucleotides of the present invention, the effect of their administration on cell viability was determined. For this purpose 5×10^3 cells per well were seeded into 96-well cell culture plates (experiments conducted in triplicate) with 100 μl of OPTI-MEM (GIBCO BRL) medium containing 4% FBS and 2 mM of L-glutammine. The PNA oligonucleotides were administered at different concentrations (1 μM-2.5 μM-5 μM-10 μM) in order to observe a dose-effect relationship. The viability of the treated cells was determined at 48, 72, 96 and 168 hours after treatment. Cell viability was assessed by means of an ATP-Lite assay (Luminescence ATP Detection Assay System, PerkinElmer) and is reported as the ratio between the average signal of the treated wells compared to the average value of the wells of untreated control cells. The cells were processed following the instructions provided with the kit. The assays were performed on the same cell lines used to determine the levels of the MYCN gene messenger and listed in the paragraph: Treatments with Oligonucleotides-QT-PCR. The PNAs having SEQ ID NO: 1-12 were also tested on different cell lines which overexpress MYCN (Kelly, SKNBE2c, RH30, […] 1 and H69). The results are shown in Table 6 and confirm the selectivity and specificity of the inhibition effect of the PNAs on the product of protein translation of the MYCN gene.

[2] = test system: MYCN gene; assay: QT-PCR, MYCN mRNA in SKNBE2c cells
Protocol: For the purpose of assessing the ability of the oligonucleotides of the present invention to modulate the expression of the target genes, their ability to reduce the quantity of messenger RNA was analyzed using the Real-Time PCR technique. For this purpose, use was made of 24-well plates, which were seeded with 5.0×10^4 cells with 0.3 ml of OPTI-MEM (GIBCO BRL) medium, 4% FBS and 2 mM L-glutammine (experiments in triplicate) per well. The cells were incubated for 24 hours at 37° C., in an atmosphere containing 5% CO2 to permit adherence to the base of the wells. For each well, the oligonucleotides were analyzed at the following final concentrations: • the antisense oligonucleotides siRNA and siRNA gapmer (i.e. the oligonucleotides containing one or more monomers of chemically modified nucleic acids at the 3' or 5' end, while in the central portion they have monomers of nucleic acids that have not been modified or have been modified at the level of the phosphodiester bond as a phosphorothioate bond) were used at 200 nM; • the antisense oligonucleotides containing phosphorothioate DNA monomers, the RNA antigene oligonucleotides (agRNA) and the oligonucleotides containing DNA monomers and LNA monomers were used at 10 μM; • the morpholino oligonucleotides were used at a concentration of 1 μM, and • the PNA oligonucleotides were administered at a concentration of 1 μM. The cells were treated with the oligonucleotides, adding FBS up to 4% 6 hours after administration of the same. After 24 hours the total RNA was extracted from each well and purified using the RNeasy Mini Kit (QIAGEN). Assays were performed on 8 cell lines obtained from 5 different human tumours which are correlated with MYCN expression, i.e.: • as a neuroblastoma model use was made of the cell lines Kelly, IMR-32 (where the MYCN gene is amplified and superexpressed) and SKNBE2c and LAN1 (where the MYCN gene is amplified and superexpressed and the p53 gene is mutated); • as a rabdomiosarcoma model use was made of the cell line RH30, where the MYCN gene is amplified and superexpressed; • as a Wilms' tumour model use was made of the cell line WiT49, where the MYCN gene is amplified and superexpressed; • as a retinoblastoma model use was made of the cell line Y79, where the MYCN gene is amplified and superexpressed; and • as a model of small cell lung cancer use was made of the cell line H69 where the MYCN gene is amplified and superexpressed. As a control, use was made of the same cell lines as listed above treated with sterile water instead of oligonucleotides. Each RNA sample was quantified (in duplicate) using a NanoDrop ND-1000 spectrophotometer (NanoDrop Technologies). The first strand of cDNA was produced using the cDNA Synthesis Kit for RT-PCR (Roche). For the cDNA synthesis reaction a total of 1 μg of RNA was used. For the real-time PCR, 10 ng of cDNA in a final volume of 20 μl was used with SYBR Green Master Mix 2× (Applied Biosystems) (3 identical experiments were conducted in triplicate). Two housekeeping genes were used as positive controls: GAPDH and beta-actin (ACTB). The conditions of the QT-PCR reaction were: 10 min at 95° C., 20 sec at 95° C., and 30 sec at 60° C., for 50 cycles. The PNAs having SEQ ID NO: 1-12 were also tested on different cell lines which overexpress MYCN (Kelly, SKNBE2c, RH30, […] 1 and H69). The results are shown in Table 6 and confirm the selectivity and specificity of the inhibition effect of the PNAs on the product of protein translation of the MYCN gene.

[3] = test system: H69; assay: Cellular proliferation assay (ATP-Lite), H69 cells
Protocol: For the purpose of assessing the gene modulation ability of the oligonucleotides of the present invention, the effect of their administration on cell viability was determined.
For this purpose 5×10^3 cells per well were seeded into 96-well cell culture plates (experiments conducted in triplicate) with 100 μl of OPTI-MEM (GIBCO BRL) medium containing 4% FBS and 2 mM of L-glutammine.
The PNA oligonucleotides were administered at different concentrations (1 μM-2.5 μM-5 μM-10 μM) in order to observe a dose-effect relationship.
The viability of the treated cells was determined at 48, 72, 96 and 168 hours after treatment.
Cell viability was assessed by means of an ATP-Lite assay (Luminescence ATP Detection Assay System, PerkinElmer) and is reported as the ratio between the average signal of the treated wells compared to the average value of the wells of untreated control cells. The cells were processed following the instructions provided with the kit.
The assays were performed on the same cell lines used to determine the levels of the MYCN gene messenger and listed in the paragraph: Treatments with Oligonucleotides—QT-PCR.
The PNAs having SEQ ID NO: 1-12 were also tested on different cell lines which overexpress MYCN (Kelly, SKNBE2c, RH30, WiT49, WERI-Rb1 1 and H69). The results are shown in Table 6 and confirm the selectivity and specificity of the inhibition effect of the PNAs on the product of protein translation of the MYCN gene.
The ability of the tested oligonucleotides to inhibit the messenger of the gene of interest was measured and the proliferative capacity of the cells following administration of the oligonucleotides was also assessed.

SEQ ID NO: 2: PNA antigene oligonucleotide GGGTGGATGCGGGGGG directed against MYCN (PNA backbone, chemistry not fully specified)
WiT49 % cell prol. [1]: 54%
SKNBE2c % mRNA [2]: 75%
H69 % cell prol. [3]: 61%

SEQ ID NO: 9: PNA antigene oligonucleotide CCCTGCAGTCGGCGGG directed against MYCN (all peptide nucleic acid (PNA))
WiT49 % cell prol. [1]: 68%
SKNBE2c % mRNA [2]: 58%
H69 % cell prol. [3]: 70%

SEQ ID NO: 7: PNA antigene oligonucleotide CGCGCTGGGTGGATGC directed against MYCN (all peptide nucleic acid (PNA))
WiT49 % cell prol. [1]: 60%
SKNBE2c % mRNA [2]: 60%
H69 % cell prol. [3]: 67%

SEQ ID NO: 10: PNA antigene oligonucleotide CGGCCGCGGGCCGCCA directed against MYCN (PNA backbone, chemistry not fully specified)
WiT49 % cell prol. [1]: 70%
SKNBE2c % mRNA [2]: 41%
H69 % cell prol. [3]: 79%

SEQ ID NO: 1: PNA ATGCCGGGCATGATCT against MYCN; subject of patent EP 1618195, control sequence used for comparison (all peptide nucleic acid (PNA)) [reference compound]
WiT49 % cell prol. [1]: 74%
SKNBE2c % mRNA [2]: 41%
H69 % cell prol. [3]: 77%

SEQ ID NO: 8: PNA antigene oligonucleotide GTCTGGACGCGCTGGG directed against MYCN (all peptide nucleic acid (PNA))
WiT49 % cell prol. [1]: 62%
SKNBE2c % mRNA [2]: 62%
H69 % cell prol. [3]: 66%

SEQ ID NO: 5: PNA antigene oligonucleotide GCTGGGTGGATGCGGG directed against MYCN (PNA backbone, chemistry not fully specified)
WiT49 % cell prol. [1]: 63%
SKNBE2c % mRNA [2]: 59%
H69 % cell prol. [3]: 68%

SEQ ID NO: 11: PNA antigene oligonucleotide GGGAACTGTGTTGGAG directed against MYCN (PNA backbone, chemistry not fully specified)
WiT49 % cell prol. [1]: 72%
SKNBE2c % mRNA [2]: 40%
H69 % cell prol. [3]: 78%

SEQ ID NO: 6: PNA antigene oligonucleotide TGGACGCGCTGGGTGG directed against MYCN (PNA backbone, chemistry not fully specified)
WiT49 % cell prol. [1]: 65%
SKNBE2c % mRNA [2]: 62%
H69 % cell prol. [3]: 69%

SEQ ID NO: 12: PNA antigene oligonucleotide TGTCTGGACGCGCTGG directed against MYCN (all peptide nucleic acid (PNA))
WiT49 % cell prol. [1]: 73%
SKNBE2c % mRNA [2]: 40%
H69 % cell prol. [3]: 78%

SEQ ID NO: 3: PNA antigene oligonucleotide GATGCGGGGGGCTCCT directed against MYCN (PNA backbone, chemistry not fully specified)
WiT49 % cell prol. [1]: 57%
SKNBE2c % mRNA [2]: 68%
H69 % cell prol. [3]: 63%

SEQ ID NO: 4: PNA antigene oligonucleotide GTCGGCGGGAGGTAAG directed against MYCN (PNA backbone, chemistry not fully specified)
WiT49 % cell prol. [1]: 60%
SKNBE2c % mRNA [2]: 60%
H69 % cell prol. [3]: 66%
